Experimental data as given in PubChem BioAssay (NCI).
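Exposure lasted 48 hours, with cells grown in 96-well plates and compounds tested at five concentrations. Abbreviation: GI50, concentration required for 50% inhibition of growth. At the TGI there is no net growth.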

Assays:
Assay in all cases: NCI tumour cell line growth inhibition, 48 h
786-0 renal = test system: 786-0 renal
A498 renal = test system: A498 renal
A549 NSCLC = test system: A549 NSCLC
ACHN renal = test system: ACHN renal
BT-549 breast = test system: BT-549 breast
CAKI-1 renal = test system: CAKI-1 renal
CCRF-CEM leukemia = test system: CCRF-CEM leukemia
COLO 205 colon = test system: COLO 205 colon
DU-145 prostate = test system: DU-145 prostate
EKVX NSCLC = test system: EKVX NSCLC
HCC-2998 colon = test system: HCC-2998 colon
HCT-116 colon = test system: HCT-116 colon
HCT-15 colon = test system: HCT-15 colon
HL-60(TB) leukemia = test system: HL-60(TB) leukemia
HOP-62 NSCLC = test system: HOP-62 NSCLC
HOP-92 NSCLC = test system: HOP-92 NSCLC
HS 578T breast = test system: HS 578T breast
HT29 colon = test system: HT29 colon
IGROV1 ovarian = test system: IGROV1 ovarian
K-562 leukemia = test system: K-562 leukemia
KM12 colon = test system: KM12 colon
LOX IMVI melanoma = test system: LOX IMVI melanoma
M14 melanoma = test system: M14 melanoma
MALME-3M melanoma = test system: MALME-3M melanoma
MCF7 breast = test system: MCF7 breast
MDA-MB-231 breast = test system: MDA-MB-231 breast
MDA-MB-435 = test system: MDA-MB-435
MDA-MB-468 breast = test system: MDA-MB-468 breast
MOLT-4 leukemia = test system: MOLT-4 leukemia
NCI-H226 lung = test system: NCI-H226 lung

SMILES: S=C(NCCc1ccccc1)Nc1ccc(OCc2nc3ccc(Cl)cc3[nH]2)cc1
- GI50 (786-0 renal): 7.67 µM
- TGI (786-0 renal): 21.4 µM
- GI50 (A498 renal): 10.4 µM
- TGI (A498 renal): 22.7 µM
- GI50 (A549 NSCLC): 12.6 µM
- TGI (A549 NSCLC): 31.5 µM
- GI50 (ACHN renal): 7.74 µM
- TGI (ACHN renal): 20.4 µM
- GI50 (BT-549 breast): 10.4 µM
- TGI (BT-549 breast): 22.5 µM
- GI50 (CAKI-1 renal): 4.32 µM
- TGI (CAKI-1 renal): 17.7 µM
- GI50 (CCRF-CEM leukemia): 3.06 µM
- TGI (CCRF-CEM leukemia): 14.8 µM
- GI50 (COLO 205 colon): 12.4 µM
- TGI (COLO 205 colon): 28 µM
- GI50 (DU-145 prostate): 12 µM
- TGI (DU-145 prostate): 25 µM
- GI50 (EKVX NSCLC): 7.97 µM
- TGI (EKVX NSCLC): 21.2 µM
- GI50 (HCC-2998 colon): 6.1 µM
- TGI (HCC-2998 colon): 20.4 µM
- GI50 (HCT-116 colon): 4.65 µM
- TGI (HCT-116 colon): 17.6 µM
- GI50 (HCT-15 colon): 4.9 µM
- TGI (HCT-15 colon): 18 µM
- GI50 (HL-60(TB) leukemia): 1.26 µM
- TGI (HL-60(TB) leukemia): 4.35 µM
- GI50 (HOP-62 NSCLC): 14 µM
- TGI (HOP-62 NSCLC): 28.7 µM
- GI50 (HOP-92 NSCLC): 3.52 µM
- TGI (HOP-92 NSCLC): 17 µM
- GI50 (HS 578T breast): 8.41 µM
- TGI (HS 578T breast): 31.9 µM
- GI50 (HT29 colon): 9.67 µM
- TGI (HT29 colon): 24.4 µM
- GI50 (IGROV1 ovarian): 6.26 µM
- TGI (IGROV1 ovarian): 19.9 µM
- GI50 (K-562 leukemia): 3.04 µM
- TGI (K-562 leukemia): 20 µM
- GI50 (KM12 colon): 10.5 µM
- TGI (KM12 colon): 23.6 µM
- GI50 (LOX IMVI melanoma): 4.02 µM
- TGI (LOX IMVI melanoma): 16.1 µM
- GI50 (M14 melanoma): 9.53 µM
- TGI (M14 melanoma): 22 µM
- GI50 (MALME-3M melanoma): 12.5 µM
- TGI (MALME-3M melanoma): 25.2 µM
- GI50 (MCF7 breast): 3.14 µM
- TGI (MCF7 breast): 15.5 µM
- GI50 (MDA-MB-231 breast): 5.75 µM
- TGI (MDA-MB-231 breast): 19.4 µM
- GI50 (MDA-MB-435): 4.36 µM
- TGI (MDA-MB-435): 17.6 µM
- GI50 (MDA-MB-468 breast): 3.78 µM
- TGI (MDA-MB-468 breast): 17.4 µM
- GI50 (MOLT-4 leukemia): 2.46 µM
- TGI (MOLT-4 leukemia): 7.51 µM
- GI50 (NCI-H226 lung): 12.9 µM
